Data from patent US20170166979A1, “PERSONALIZED TREATMENT OF CANCER USING FGFR INHIBITORS” (priority 2014, published 2017).
Entries after “also recorded” stand apart in the source; their conditions may differ.

Assays:
[1] = system: NIH3T3 cells expressing either of the mesenchymal FGFR1 splice variants; experiment: Xenograft mouse model, tumor volume; type: in vivo, nude mice; conditions: 15 mg/kg, q.d.
Experimental: (§1) FIG. 4. Nude mice, engrafted with retrovirally transduced NIH3T3 cells, received BGJ398 (15 mg/kg, q.d., lower curve) or 5% glucose (upper curve), respectively, upon formation of palpable tumors. Volumes of tumors formed by NIH3T3-FGFR1f3 cells (top) and NIH3T3-FGFR1β-MYC cells (bottom) were assessed every second day and compared by the t test. Error bars display SD of three independent experiments.
(§2) All animal procedures were approved by the local animal protection committee and the local authorities. Transduced NIH3T3 and tumor cells were resuspended in RPMI or DMEM medium and injected (5×10^6 cells per tumor) subcutaneously into the flanks of 8- to 15-week-old male nude mice [Rj:NMRI-nu (nu/nu), Janvier Europe] under 2.5% isoflurane anesthesia.
(§3) To assess the effect of FGFR1 inhibitors in vivo, NVP-BGJ 398 (Novartis) was dissolved in a vehicle solution (33% PEG300, 5% glucose) for xenograft application. Tumor size was monitored every second day by measurement of perpendicular diameters by an external caliper and calculated by use of the modified ellipsoid formula [V=½ (Length×Width 2)]. Oral therapy was started when tumors reached a volume of 100 mm 3. Mice received daily either
(§4) BGJ398 (15 mg/kg) or vehicle solution. After 14 (NIH3T3 FGFR1(3 +MYC), 16 (NIH3T3 EML4-ALK, KRAS G12V), or 25 (NIH3T3 e.V., FGFR1α/β) days of therapy, respectively, mice were sacrificed by intraperitoneal injection of ketamine/xylazine (300/60 mg/kg).

[2] = system: NIH3T3-FGFR1β-MYC cells; experiment: Xenograft mouse model, tumor volume; type: in vivo, nude mice; conditions: 15 mg/kg, q.d., tumors coexpressing FGFR1 and MYC; P<0.001
Experimental: as §1, §2, §3, §4

[3] = system: stage IV squamous cell lung cancer with FGFR1 amplification and MYC score of 3; experiment: Patient treated with BGJ398 in first-in-humans trial (CT, RECIST 1.1); type: in vivo, human; conditions: 100 mg
Source text: FIG. 11. […] The sample was scored (degrees 0-3) by FGFR1 dual-color FISH (top, normalized copy-number ratio) as well as MYC IHC (bottom, nuclear staining intensity).
FIG. 13. Fused scans of positron emission tomography (PET) and computer tomography (CT) before (top left, baseline) and after the beginning of BGJ389 therapy (top right, 4 weeks). […] Target lesions for evaluation of tumor response are highlighted by red arrows. IHC, immunohistochemistry.
We identified a person with a 70-packper-year smoking history. […] The patient agreed to treatment with BGJ398, a highly specific FGFR1 inhibitor, which was being evaluated in a first-in-humans trial at our center. After cardiac assessment and baseline thoracic computed tomography (CT), treatment with 100 mg BGJ398 was started.

[4] = system: FGFR-dependent cancer cell lines (H1581, DMS114, and HCC1599); experiment: FGFR dependency of cancer cell lines (cellular ATP content after 96 hours); type: cell-based; conditions: FGFR-dependent group: H1581, DMS114, HCC1599
Experimental: (§5) FIG. 7. Protein expression of MYC was silenced by stable lentiviral transduction of FGFR dependent H1581 cells as well as HCC15, H2882, and HCC95 controls. Knockdown efficiency was validated by immunoblotting for H1581, H2882, and HCC15 cells (top). FGFR dependency was determined by measuring cellular ATP content after 96 hours (bottom).
(§6) FIG. 9. Segregation of FGFR1 amplification with RNA expression levels of MYC Cancer cell lines were divided into an FGFR-dependent (H1581, DMS114, and HCC1599) GI 50<500 nmol/L, PD173074) versus resistant group (A427, H520, H1703, HCC15, H358, HCC95, H187, SW1271, H526, and DMS153 cells). Expression levels were compared by the Student t test. wt, wild-type.

[5] = system: resistant group (A427, H520, H1703, HCC15, H358, HCC95, H187, SW1271, H526, and DMS153 cells); experiment: as above; type: cell-based
Experimental: as §5, §6

[6] = system: FGFR1-MYC cotransduced NIH3T3 cells; experiment: Induction of apoptosis (Annexin-V/PI, flow cytometry); type: cell-based; conditions: 1 μmol/L, 72-hour FGFR inhibition
Source text: (§7) FIG. 3. Induction of apoptosis (Annexin-V/PI, flow cytometry) in NIH3T3 cells, (co-) transduced with FGFR1β+/−MYC, by 72-hour FGFR inhibition (PD173074, 1 μmol/L). FGFR-dependent H1581 cells (PD173074, 1 μmol/L) as well as ALK-dependent NIH3T3-EML4-ALK
(§8) cells (TAE684, 1 μmol/L) were used as positive controls.

[7] = system: NIH3T3 cells expressing FGFR1 alone; experiment: as above; type: cell-based; conditions: 1 μmol/L, 72-hour FGFR inhibition
Source text: as §7, §8

[8] = system: FGFR-dependent H1581 cells; experiment: as above; type: cell-based; conditions: 1 μmol/L, 72-hour
Source text: as §7
cells (TAE684, 1 μmol/L) were used as positive controls. Resistant HCC15 and NIH3T3-e.V. cells served as negative controls. *, Significant induction of apoptosis.

[9] = system: FGFR-dependent cell lines H1581 and DMS114; experiment: Immunoblotting of MYC and cyclin D1 expression upon FGFR inhibition; type: cell-based; conditions: 1 μmol/L, within 24 hours
Experimental: (§9) FIG. 6. FGFR1-amplified H1581, DMS114, and HCC95 cells as well as HCC15 (NRAS mut) controls were treated with PD173074 (1 μmol/L, 24 hours). Expression levels of MYC, cyclin D1, and actin as well as ERK phosphorylation were monitored by immunoblotting. Con.: positive control NIH3T3-FGFR1β cells.

[10] = system: FGFR1-amplified HCC95 and H520 cells and NRAS-mutant HCC15 cells; experiment: as above; type: cell-based; conditions: 1 μmol/L, 24 hours
Experimental: as §9

[11] = system: FGFR-dependent cell lines; experiment: Mitochondrial apoptosis mediators upon FGFR inhibition; type: cell-based; conditions: 1 μmol/L, after 72 hours

CCN1CCN(c2ccc(Nc3cc(N(C)C(=O)Nc4c(Cl)c(OC)cc(OC)c4Cl)ncn3)cc2)CC1 [BGJ398]
Tumor growth ([1]; oral, nude mice): repressed tumor growth
Tumor shrinkage ([1]; tumors expressing FGFR1 alone): did not induce tumor shrinkage
Tumor regression [2]: led to regressions
Duration of therapy until progressive disease (kidney, RECIST1.1) [3]: 10 months
Symptoms [3]: improvement of symptoms
Response according to RECIST 1.1 criteria ([3]; CT scans after 4 and 8 weeks): partial response (PR)
Tumor response on CT ([3]; CT scans after 4 and 8 weeks): tumor regression; also recorded: regression without cavitation of the tumor

CCN(CC)CCCCNc1ncc2cc(-c3cc(OC)cc(OC)c3)c(NC(=O)NC(C)(C)C)nc2n1 [PD173074]
GI50 [4]: < 0.5 µM
FGFR dependency group [5]: resistant
Induction of apoptosis [6]: induced apoptosis
Induction of apoptosis [7]: but not in cells expressing FGFR1 alone
Induction of apoptosis [8]: induced apoptosis
Levels of MYC [9]: decreased
Levels of cyclin D1 [9]: decreased
Expression levels (MYC, cyclin D1) [10]: remained relatively stable
Cytochrome C release [11]: occurred robustly
Loss of the mitochondrial membrane potential [11]: occurred robustly
